Results from patent publication US20240109892A1, “POLY(ADP-RIBOSE) GLYCOHYDROLASE (PARG) INHIBITORS AGAINST COVID MACRODOMAIN AND METHODS OF USING THE SAME” (BOARD OF REGENTS, THE UNIVERSITY OF TEXAS SYSTEM, priority 2021, published 2024).
Read-outs that look alike come from different tables or passages of the source.

Tests used:
CoV-2 Mac1 [1] = biological target: T1, CoV-2 Mac1 (Severe acute respiratory syndrome coronavirus 2, UniProt P0DTC1); test: biochemical; format: binding
CoV-2 Mac1 [2] = biological target: T1, CoV-2 Mac1; test: Microscale thermophoresis (MST) binding affinity measurements with CoV-2 Mac1; conditions: preliminary measurements
[3] = pH 7.5; cited from earlier work

| SMILES | ΔG (CoV-2 Mac1 [1]; ITC, 25° C.) | ΔH (CoV-2 Mac1 [1]; ITC, 25° C.) | −TΔS (CoV-2 Mac1 [1]; ITC, 25° C.) | Kd (CoV-2 Mac1 [1]; ITC, 25° C., 25 mM HEPES pH 7.5, 150 mM NaCl, read-out: Kd) | Kd (CoV-2 Mac1 [1]; read-out: dissociation constant Kd) | binding to the Mac1 domain by ITC (CoV-2 Mac1 [1]) | binding to the Mac1 domain by MST (CoV-2 Mac1 [2]) | pKa of morpholine nitrogen atom [3] |
| --- | --- | --- | --- | --- | --- | --- | --- | --- |
| Nc1ncnc2c1ncn2[C@@H]1O[C@H](COP(=O)(O)OP(=O)(O)OC[C@H]2OC(O)[C@H](O)[C@@H]2O)[C@@H](O)[C@H]1O (stereo partly shown) [ADPr, ADP-ribose] | -6.74 kcal/mol | -9.18 kcal/mol | 2.43 kcal/mol | 11.6 µM | 10 to 12 µM |  |  |  |
| Cn1c(=O)c2[nH]c(SCCCNC(=S)NCCN3CCOCC3)nc2n(C)c1=O [PARG-329] |  |  |  |  |  | fails to detect a robust interaction | micromolar affinity |  |
| Cn1c(=O)c2[nH]c(SCCC(=O)NS(=O)(=O)CCN3CCOCC3)nc2n(C)c1=O [PARG-345, 3-((1,3-dimethyl-2,6-dioxo-2,3,6,7-tetrahydro-1H-purin-8-yl)thio)-N-((2-morpholinoethyl)sulfonyl)propanamide] |  |  |  |  |  | fails to detect a robust interaction | micromolar affinity | ~8.3 |
